Results on 23 compounds are retold here after ChEMBL document CHEMBL3046896, “Synthesis and antitumor screening of new series of pyrimido-[4,5-b]quinolines and [1,2,4]triazolo[2,3:3,4]pyrimido[6,5-b]quinolines” (Med Chem Res, 2013).

pIC50: −log10 of the molar value. Activity calls are given as the source filed them. No cut-off for these calls is given here.

Test [1] in a line: Displacement of methyl green from DNA after 24 hr by spectrophotometric analysis.
Test [2] in a line: Binding affinity to DNA at 5 mg/ml by TLC analysis.
For a further test, the system named is MCF7. Kind of test: Cytotoxicity against Homo sapiens (human) MCF7 cells after 48 hr by SRB assay. Format: functional, cell-based. As to conditions: MCF7, 48 h.

What is called pIC50 is the negative decadic logarithm of the IC50, by convention in mol/L. High values mean a small IC50, low ones a large IC50. Consider `COc1ccc(C2C3=C(CCCC3)Nc3[nH]c(=S)[nH]c(=S)c32)cc1OC` (stereo not drawn), for which the figures for the negative logarithm of the IC50 (pIC50) (in test [1]; in the test on MCF7) were 4.42 and less than 5.00, respectively. The outcome in test [2] was Active.

Take `COc1ccc(C2C3=C(CCCC3)Nc3nc(C)[nH]c(=O)c32)cc1OC` (stereo not drawn): the pIC50 in test [1] was 4.60; with MCF7, less than 5.00. Also, the outcome in test [2] was Active.

Take `N=c1c2c(ncn1/N=C/c1ccc(Cl)cc1)NC1=C(CCCC1)C2c1ccc(Cl)cc1` (stereo not drawn): the figures for the pIC50 (in test [1]; in the test on MCF7) were 4.15 and less than 5.00, respectively. Besides, the result in test [2] was Active.

The compound `CCCCn1c(=S)[nH]c2c(c1=N)C(c1ccc(Cl)cc1)C1=C(CCCC1)N2` (stereo not drawn) had a pIC50 in test [1] of 4.06. Moreover, the outcome in test [2] was inactive.

Turning to `Cc1nc2c(c(=O)[nH]1)C(c1cccc(Br)c1)C1=C(CCCC1)N2` (stereo not drawn), the results for the pIC50 (in test [1]; in the test on MCF7) were 4.49 and 5.39, respectively. For the same compound, the outcome in test [2] was Active.

Turning to `CCCCn1c(=S)[nH]c2c(c1=N)C(c1ccccc1)C1=C(CCCC1)N2` (stereo not drawn), the pIC50 was 4.14 in test [1] and 5.24 in the test with MCF7. Moreover, the outcome in test [2] was Active.

In test [1], `N=c1c2c([nH]c(=S)n1-c1ccccc1)NC1=C(CCCC1)C2c1ccc(Cl)cc1` (stereo not drawn) showed a pIC50 of 4.26. Moreover, in test [2], the outcome was Active.

For the compound `COc1ccc(C2C3=C(CCCC3)Nc3ncn(/N=C/c4ccc(Cl)cc4)c(=N)c32)cc1OC` (stereo not drawn), the results for the pIC50 (in test [1]; with MCF7) were 4.85 and 5.42, respectively. The outcome in test [2] was Active.

`N=c1c2c(ncn1/N=C/c1ccc(Cl)cc1)NC1=C(CCCC1)C2c1ccccc1` (stereo not drawn) showed a pIC50 in test [1] of 4.06. The outcome in test [2] was inactive.

`Brc1cccc(C2C3=C(CCCC3)Nc3ncn4ncnc4c32)c1` (stereo not drawn): the pIC50 in test [1] was 4.05; in the test with MCF7, less than 5.00. In test [2], the outcome was inactive.

As to `N=c1c2c([nH]c(=S)n1-c1ccccc1)NC1=C(CCCC1)C2c1ccccc1` (stereo not drawn), the pIC50 is 4.60 in test [1] and 5.16 in the test on MCF7. Besides, the outcome in test [2] was Active.

As to `CCOC(=O)/N=c1/c2c(ncn1NC(=O)OCC)NC1=C(CCCC1)C2c1ccccc1` (stereo not drawn), the negative-log IC50 (pIC50) in test [1] was 4.40; in the test with MCF7 it was 5.26. The result in test [2] was Active.

Take `Cc1nc2c(c(=O)[nH]1)C(c1ccccc1)C1=C(CCCC1)N2` (stereo not drawn): the pIC50 in test [1] was 4.66; with MCF7, 5.30. In addition, the result in test [2] was Active.

In the case of `S=c1[nH]c2c(c(=S)[nH]1)C(c1cccc(Br)c1)C1=C(CCCC1)N2` (stereo not drawn), the negative-log IC50 (pIC50) in test [1] is 4.12; in the test on MCF7 it was 5.35. In addition, the outcome in test [2] was Active.

With `COc1ccc(C2C3=C(CCCC3)Nc3[nH]c(=S)n(-c4ccccc4)c(=N)c32)cc1OC` (stereo not drawn), the pIC50 in test [1] is 4.40; in the test with MCF7 it was 5.28. Besides, the result in test [2] was Active.

On to `c1ccc(C2C3=C(CCCC3)Nc3ncn4ncnc4c32)cc1` (stereo not drawn), for which the pIC50 is 4.06 in test [1] and less than 5.00 in the test with MCF7. For the same compound, the outcome in test [2] was inactive.

Compound `S=c1[nH]c2c(c(=S)[nH]1)C(c1ccccc1)C1=C(CCCC1)N2` (stereo not drawn) showed a pIC50 in test [1] of 4.14. In test [2], the result was Active.

For the compound `O=c1[nH]cnc2c1C(c1ccccc1)C1=C(CCCC1)N2` (stereo not drawn), the values for the pIC50 (in test [1]; in the test on MCF7) were 4.06 and less than 5.00, respectively. Moreover, the result in test [2] was inactive.

For `COc1ccc(C2C3=C(CCCC3)Nc3ncnc(N)c32)cc1OC` (stereo not drawn), the values for the pIC50 (in test [1]; in the test on MCF7) were 4.92 and 5.44, respectively. The outcome in test [2] was Active.

As to `COc1ccc(/C=N/n2cnc3c(c2=N)C(c2ccccc2)C2=C(CCCC2)N3)cc1OC` (stereo not drawn), the pIC50 in test [1] was 4.49; in the test with MCF7 it was 5.27. Moreover, the outcome in test [2] was Active.

In the case of BLEOMYCIN, in test [1], the pIC50 was 5.00.

On to `COc1ccc(/C=N/n2cnc3c(c2=N)C(c2ccc(OC)c(OC)c2)C2=C(CCCC2)N3)cc1OC` (stereo not drawn), for which the pIC50 in test [1] was 4.42; in the test on MCF7, 5.21. The outcome in test [2] was Active.

Regarding `Nc1ncnc2c1C(c1ccc(Cl)cc1)C1=C(CCCC1)N2` (stereo not drawn), the pIC50 in test [1] was 4.60; in the test on MCF7 it was 5.41. Moreover, in test [2], the outcome was Active.
